In patent US9994862B2, “Rice resistant to HPPD and ACCase inhibiting herbicides” (priority 2011, dated 2018):
Entries after “also recorded” stand apart in the source; their conditions may differ.

Legend:
line ML0831265-01493 = test: Mesotrione tolerance trials / herbicide bioassay; format: in vivo, rice
Description: The mutant line is planted in rows or alternatively whole plots are planted and rows of the unmutated line (P1003) and other types of rice or whole plots are planted. Mesotrione is applied pre-emergence or alternatively it is applied post-emergence at the three to four leaf stage of the rice plants. Various rates of mesotrione are applied pre-emergence, pre-emergence followed by post-emergent, or post-emergent with a single or sequential application. Post-emergent applications are applied at the 3-4 leaf stage of the rice.
With low rates (105 gm ai/ha) of mesotrione applied both the mutant line as well as the original unmutated line survive. However, other types of rice, such as the mutant line with ACCase tolerance ML0831265-01493 and the associated unmutated line R0146 are killed at these rates of mesotrione. […] The higher tolerance to mesotrione makes the line ML0831266-03093 of commercial value as both the tolerance can be controlled or bred into new varieties and it is of a high enough level to allow commercial weed control in rice with the application of mesotrione herbicide and possibly other HPPD inhibiting herbicides (FIG. 19A initial results, FIG. 19B new results after 1 year, and FIG. 22—trial results on various rice lines).

[1] = test system: F2 individuals derived from a cross of ML0831266-03093 and ML0831265-01493; test: Mesotrione herbicide bioassays on segregating F2 population; format: in vivo, rice
Description: The mesotrione tolerant line ML0831266-03093 is tolerant to rates of 420 gm ai/ha and even a dual application of mesotrione first at a rate of 105 gm ai/ha followed three weeks later by an application of 630 gm ai/ha. […] The cross is made and the resulting F1 seeds are harvested, planted, and allowed to self to produce a F2 population. The F2 population is grown and tissue is collected from individual plants. Each F2 plant and parental lines are tested with a set of 192 SNP markers identified as being polymorphic between the two mutant lines ML0831266-03093 and ML0831265-01493. The set of polymorphic markers was identified as evenly spaced across the rice genome after testing both parental lines with a set of 796 SNP markers. All 192 markers including two found with linkage to target traits were selected from the 44 k SNP set described by Zhao et al. 2011.
Seedlings of size 3 to 4 leaves are sprayed with mesotrione herbicide. In one set of 89 plants mesotrione is first applied at 105 gm ai/ha killing 23 plants. Both the mutant line control ML0831266-03093 and the unmutated line P1003 survived the herbicide application while the unmutated line R0146 was killed. The surviving plants including some additional plants making a total of 95 are then sprayed with another treatment of mesotrione at a rate of 630 gm ai/ha killing or injuring 67 while 28 survived. (FIG. 23) The surviving ratio of plants to those killed or injured fits a one quarter ratio with a chi squared value of 1.03, well within the expected for a single recessive gene. Another set of F2 individuals of size 78 individuals are sprayed with a single application of mesotrione herbicide at a rate of 420 gm ai/ha resulting in 26 plants surviving also fitting in the expected one quarter ratio for a single recessive gene with a chi square value of 2.88 (Table 2).

[2] = one application at 105 gai/ha followed by second application of 630 gai/ha
[3] = single application of mesotrione at 105 gai/ha
[4] = single application of mesotrione at 420 gai/ha

CS(=O)(=O)c1ccc(C(=O)C2C(=O)CCCC2=O)c([N+](=O)[O-])c1 [mesotrione]
sensitivity to mesotrione (line ML0831265-01493; in vivo): highly susceptible; also recorded: highly sensitive | survival after mesotrione (line ML0831265-01493; low rate 105 gm ai/ha): killed | number of susceptible plants, observed [1, 2]: 67 plants | number of tolerant plants, observed [1, 2]: 28 plants | number of susceptible plants, observed [1, 3]: 23 plants | number of tolerant plants, observed [1, 3]: 64 plants | number of susceptible plants, observed [1, 4]: 52 plants | number of tolerant plants, observed [1, 4]: 26 plants
